Data from patent publication US20140315972A1, “RS)-2-(2-oxo-4-phenylpyrrolidin-1-yl)acetamide compound having modulatory activity with a commensurate effect, pharmaceutical substance (variants) and its application, composition (variants) thereof” (priority 2011, published 2014).
Marks after values point to notes of the source that are not given here.

System: mice
Assay: Open field test
Type: in vivo
Details: for Distance covered during 1st min (horizontal motor activity) / Distance during 2nd min (horizontal motor activity) / Distance during 3rd min (horizontal motor activity) / Explorations during 2nd min / Explorations during 3rd min / Number of explorations (holes) during 1st min / Number of washings during 1st min / Total distance at 3 min (horizontal motor activity) / Total number of explorations at 3 min / Total number of visits to the center at 3 min / Total number of washings at 3 min / Visits to the center during 1st min / Visits to the center during 2nd min / Visits to the center during 3rd min / Washings during 2nd min / Washings during 3rd min / vertical motor activity, 1st min (Distance covered) / vertical motor activity, 2nd min / vertical motor activity, 3rd min / vertical motor activity, total at 3 min: mice
Protocol: Study of the effect of Phenotropil (100, 200, 300 mg/kg) on motor activity and exploratory behavior by the open field test on mice (16-24 g) in comparison with olanzapine (1 mg/kg) is shown in Tables 5-5.4. Olanzapine at higher doses has sedative activity, so for comparison with Phenotropil, the drug was used only at a dose of 1 mg/kg. The drugs and distilled water to control groups were injected intraperitoneally 40 minutes prior to the study. […] This indicates the ability of the drug to reversibility, unlike olanzapine.

NC(=O)CN1CC(c2ccccc2)CC1=O (racemic) [Compound 1, (RS)-2-(2-oxo-4-phenylpyrrolidine-1-yl)acetamide]
increase of horizontal locomotor activity (100 mg/kg): 112.2% | increase of number of visits to the center vs control (100 mg/kg): 111% | increase of total exploratory behavior index (100 mg/kg): 50% | increase of total vertical locomotor activity (100 mg/kg): 237.5% | reduction of total index of washes vs control (100 mg/kg): 25% | decrease of total exploratory behavior index (200 mg/kg): 32% | increase of horizontal locomotor activity (200 mg/kg): 151.8% | increase of number of visits to the center vs control (200 mg/kg): 155% | vertical activity over three minutes vs control (200 mg/kg): −6.3% | increase of horizontal locomotor activity (300 mg/kg): 99.5% | increase of number of visits to the center vs control (300 mg/kg): 133% | increase of total index of explored holes (300 mg/kg): 27% | number of rearings at the first minute vs control (300 mg/kg): −75% | total number of rearings for 3 minutes vs control (300 mg/kg): +56% | Distance covered during 1st min (horizontal motor activity) (100 mg/kg i.p.): 23.7 ± 5*^ | Distance during 2nd min (horizontal motor activity) (100 mg/kg i.p.): 22.5 ± 3.1 | Distance during 3rd min (horizontal motor activity) (100 mg/kg i.p.): 44 ± 10.7 | Explorations during 2nd min (100 mg/kg i.p.): 1.5 ± 0.4 | Explorations during 3rd min (100 mg/kg i.p.): 1.3 ± 0.7 | Number of explorations (holes) during 1st min (100 mg/kg i.p.): 0.5 ± 0.3 | Number of washings during 1st min (100 mg/kg i.p.): 0.2 ± 0.2 | Total distance at 3 min (horizontal motor activity) (100 mg/kg i.p.): 90.2 ± 8.7 | Total number of explorations at 3 min (100 mg/kg i.p.): 3.3 ± 0.9 | Total number of visits to the center at 3 min (100 mg/kg i.p.): 3.9 ± 0.6 | Total number of washings at 3 min (100 mg/kg i.p.): 0.3 ± 0.2^ | Visits to the center during 1st min (100 mg/kg i.p.): 0.7 ± 0.5 | Visits to the center during 2nd min (100 mg/kg i.p.): 2.2 ± 0.8 | Visits to the center during 3rd min (100 mg/kg i.p.): 1 ± 0.5 | Washings during 2nd min (100 mg/kg i.p.): 0.1 ± 0.2^ | Washings during 3rd min (100 mg/kg i.p.): 0 ± 0 | vertical motor activity, 1st min (Distance covered) (100 mg/kg i.p.): 2.3 ± 1.1 | vertical motor activity, 2nd min (100 mg/kg i.p.): 3.8 ± 1.7 | vertical motor activity, 3rd min (100 mg/kg i.p.): 4.7 ± 1.6 | vertical motor activity, total at 3 min (100 mg/kg i.p.): 10.8 ± 4.2 | Distance covered during 1st min (horizontal motor activity) (200 mg/kg i.p.): 31.7 ± 2.8 | Distance during 2nd min (horizontal motor activity) (200 mg/kg i.p.): 41.8 ± 7.0 | Distance during 3rd min (horizontal motor activity) (200 mg/kg i.p.): 33.5 ± 4.7 | Explorations during 2nd min (200 mg/kg i.p.): 0.8 ± 0.5 | Explorations during 3rd min (200 mg/kg i.p.): 0.5 ± 0.5 | Number of explorations (holes) during 1st min (200 mg/kg i.p.): 0.2 ± 0.2 | Number of washings during 1st min (200 mg/kg i.p.): 0 ± 0 | Total distance at 3 min (horizontal motor activity) (200 mg/kg i.p.): 107 ± 11.5 | Total number of explorations at 3 min (200 mg/kg i.p.): 1.5 ± 0.9 | Total number of visits to the center at 3 min (200 mg/kg i.p.): 4.7 ± 0.7 | Visits to the center during 1st min (200 mg/kg i.p.): 0.3 ± 0.2 | Visits to the center during 2nd min (200 mg/kg i.p.): 2.7 ± 0.4 | Visits to the center during 3rd min (200 mg/kg i.p.): 1.7 ± 0.4 | Washings during 2nd min (200 mg/kg i.p.): 0 + 0 * | Washings during 3rd min (200 mg/kg i.p.): 0 ± 0 | vertical motor activity, 1st min (Distance covered) (200 mg/kg i.p.): 0 ± 0 | vertical motor activity, 2nd min (200 mg/kg i.p.): 1.3 ± 0.7 | vertical motor activity, 3rd min (200 mg/kg i.p.): 1.7 ± 0.7 | vertical motor activity, total at 3 min (200 mg/kg i.p.): 3.0 ± 1.3 | Distance covered during 1st min (horizontal motor activity) (300 mg/kg i.p.): 29.7 ± 12.3 | Distance during 2nd min (horizontal motor activity) (300 mg/kg i.p.): 27.2 ± 10.2 | Distance during 3rd min (horizontal motor activity) (300 mg/kg i.p.): 28 ± 6.4 | Explorations during 2nd min (300 mg/kg i.p.): 1.5 ± 0.8 | Explorations during 3rd min (300 mg/kg i.p.): 1.0 ± 0.8 | Number of explorations (holes) during 1st min (300 mg/kg i.p.): 0.3 ± 0.2 | Number of washings during 1st min (300 mg/kg i.p.): 0.2 ± 0.2 | Total distance at 3 min (horizontal motor activity) (300 mg/kg i.p.): 84.8 ± 28.0 | Total number of explorations at 3 min (300 mg/kg i.p.): 2.8 ± 1.4 | Total number of visits to the center at 3 min (300 mg/kg i.p.): 4.2 ± 0.8 | Total number of washings at 3 min (300 mg/kg i.p.): 0.2 ± 0.2 | Visits to the center during 1st min (300 mg/kg i.p.): 1.2 ± 0.4 | Visits to the center during 2nd min (300 mg/kg i.p.): 1.3 ± 0.5 | Visits to the center during 3rd min (300 mg/kg i.p.): 1.7 ± 0.5 | Washings during 2nd min (300 mg/kg i.p.): 0 ± 0 | Washings during 3rd min (300 mg/kg i.p.): 0 ± 0 | vertical motor activity, 1st min (Distance covered) (300 mg/kg i.p.): 0.3 ± 0.2 | vertical motor activity, 2nd min (300 mg/kg i.p.): 2 ± 1.2 | vertical motor activity, 3rd min (300 mg/kg i.p.): 2.7 ± 1.1 | vertical motor activity, total at 3 min (300 mg/kg i.p.): 5.0 ± 1.8
